Measured values as given in article PMC9917213, “New Insights into Bitopic Orthosteric/Allosteric Ligands of Cannabinoid Receptor Type 2” (International Journal of Molecular Sciences, 2023).
Where two headings read alike, the source gives them in different places.

Columns and labels:
[1] = molecular target: T1, hCB2R (Homo sapiens, UniProt P34972); test: HitHunter cAMP assay: inhibition of forskolin-stimulated cAMP; format: cell-based; settings: for Emax: read-out: Emax ± SEM
T1 construct: host or cells: CHO-K1 (HitHunter cAMP cell line)
T1 sequence (P34972 whole entry): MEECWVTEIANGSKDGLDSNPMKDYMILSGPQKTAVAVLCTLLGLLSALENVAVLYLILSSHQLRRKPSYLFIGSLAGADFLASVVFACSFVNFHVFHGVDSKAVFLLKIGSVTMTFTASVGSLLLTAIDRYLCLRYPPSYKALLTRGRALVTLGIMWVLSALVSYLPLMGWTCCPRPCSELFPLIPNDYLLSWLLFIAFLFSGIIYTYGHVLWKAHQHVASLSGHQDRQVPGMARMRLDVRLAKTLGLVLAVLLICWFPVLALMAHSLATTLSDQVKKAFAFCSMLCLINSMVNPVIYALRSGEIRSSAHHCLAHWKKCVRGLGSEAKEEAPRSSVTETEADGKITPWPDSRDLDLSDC
Experimental: Chinese hamster ovary (CHO)-K1 cells untransfected or stably-expressing human cannabinoid CB2R (hCB2R) were used as previously reported. Cells were maintained at 37 °C, 5% CO2 in F-12/DMEM containing 1 mM L-glutamine, 10% fetal bovine serum (FBS), and 1% Pen/Strep and hygromycin B (300 μg/mL) and G418 (400 μg/mL). HitHunter® (cAMP) CHO-K1 cells stably expressing hCB2R from DiscoveRx (Eurofins, Fremont, CA, USA) were maintained at 37 °C, 5% CO2 in F-12 DMEM containing 10% FBS and 1% Pen/Strep with 800 μg/mL geneticin.
This method was conducted as described previously. The quantification of FSK-stimulated cAMP accumulation was performed using the DiscoveRx HitHunter assay. Twenty thousand cells/well were plated in low-volume 96-well plates and incubated overnight in Opti-MEM containing 1% FBS at 37 °C and 5% CO2. Opti-MEM media was then removed and replaced with cell assay buffer (DiscoveRx), and cells were co-treated at 37 °C with 10 μM FSK and ligands for 90 min. The cAMP antibody solution and cAMP working detection solutions were added to cells (DiscoveRx), and cells were incubated for 60 min at room temperature. cAMP solution A (DiscoveRx) was added, and cells were incubated for an additional 180 min at room temperature before chemiluminescence was measured on a Cytation5 plate reader (top read, gain 200, integration time 10,000 ms).
Post-hoc analyses were performed using Tukey’s (one-way ANOVA) test.

[2] = test system: HMC3 cells; test: IL-6 release (ELISA) in LPS/TNFα stimulated HMC3 cells; format: cell-based, human
Experimental: The human microglial clone 3 cell line (HMC3) (ATCC® CRL-3304™) was cultured in high glucose DMEM supplemented with 10% FBS, streptomycin ([…]) and penicillin (100 U/mL) (Sigma-Aldrich, Milan, Italy). LPS (Cat. number L4391) and TNFα (Cat. number H8916) were purchased from Sigma-Aldrich (Milan, Italy).
The pro-inflammatory IL-6 levels were evaluated by a specific ELISA assay (RAB0306, Sigma-Aldrich, Milan, Italy) on collected culture media. Briefly, HMC3 cells were exposed to pretreatment with a test compound for 30 min followed by LPS (10 μg/mL)/TNFα (50 ng/mL) for 24 h, used as pro-inflammatory stimuli. Vehicle-treated cells were used as control. In competition experiments, the CB2R antagonist (SR144528, 1 μM; Cayman Chemical Company, Ann Arbor, MA, USA) or the CB2R positive allosteric modulator (EC21a, 10 μM) was administered 15 min before agonist administration.

[3] = test system: HMC3 cells; test: MTT cell viability assay; format: cell-based, human; settings: 24 h
Experimental: Cell viability was evaluated by 3-(4,5-dimethylthiazol-2-yl)-2,5-diphenyltetrazolium bromide (MTT) reagent. Briefly, HMC3 cells were exposed to increasing concentrations of the compound, ranging from 0.1 to 25 µM. After 24 h, 0.5 mg/mL MTT reagent was added to each well, and the cells were incubated for 3 h at 37 °C. Then, 25 µL of the medium was removed from the wells, and 50 µL of DMSO was added. After 10 min incubation at 37 °C, absorbance at OD540 nm was determined with an automated microplate reader (BIO-TEK, Winooski, VT, USA). The percentage of cell viability was calculated as a percentage of vehicle-treated cells used as control.

[4] = Plasma stability (LC-HRMS), rat plasma; format: in vitro ADME; settings: 20 µM, 37 °C, up to 360 min
Experimental: (§1) Plasma stability was evaluated at the time points 0, 10, 30, 60, 120, 240, and 360 min over two species, rodent (rat) and human, and assessed by LC-HRMS. Results are expressed as a relative percentage (mean ± SD) with respect to the amount at t = 0 min. JR22a is stable both in rat and human plasma up to the last time point tested (360 min), as can be observed in Figure 6.
(§2) Stock solutions of 1 mg/mL JR22a and procainamide (used as internal standard, IS) were prepared in CH3OH and kept in ice during sample preparation and stored at −20 °C if not in use. The stability was tested in rat and human plasma obtained from Sigma-Aldrich (Milan, Italy).
(§3) JR22a (20 µM) was incubated with plasma at 37 °C under gentle shaking up to […] in triplicates. An aliquot of 20 µL was withdrawn from the mixture and diluted to a final volume of 200 µL of a 2 % TCA solution containing procainamide 1 µM at each time point: 10, 30, 60, 120, 240, and 360 min. Samples were kept in ice for 20 min and then centrifugated at 14,000 rpm for 10 min at 4 °C. The supernatant was diluted 1:1 with water and transferred in vials for the analysis. […]

[5] = Plasma stability (LC-HRMS), human plasma; format: in vitro ADME; settings: 20 µM, 37 °C, up to 360 min
Experimental: as §1, §2, §3

[6] = molecular target: T1, hCB2R; test: [3H]CP55,940 radioligand displacement assay, hCB2R; format: binding
Experimental: (§4) We assessed ligand affinity for JR-22a at hCB1R and hCB2R using a […]
(§5) either receptor. […] At hCB2R, JR-22a
(§6) Figure S1. […] Membranes from CHO-K1 cells stably-expressing hCB1R (a) or […]
(§7) Data were fitted to a non-linear regression (three-parameter model, GraphPad v. 9.0). Data are mean ± S.E.M. of 3 independent experiments performed in triplicate.
(§8) Radioligand Displacement Assay.
(§9) Cells were scraped from flasks, centrifuged, and frozen at −80 °C until required.
(§10) This method was conducted as described previously. Cells were thawed, diluted in Tris buffer (50 mM Tris−HCl and 50 mM Tris−base), and homogenized in a 1 mL handheld homogenizer. hCB1R and hCB2R CHO−K1 cell membranes were collected by cavitation in a pressure cell and sedimented by ultracentrifugation. Pellets were resuspended in TME buffer (50 mM Tris−HCl, 5 mM MgCl2, 1 mM EDTA, pH 7.4), and protein concentration was measured via the Bradford method (Bio-Rad Laboratories, Mississauga, ON). Competition binding experiments were conducted with 1 nM [3H]CP55, 940 and Tris binding buffer (50 mM Tris−HCl, 50 mM Tris−base, 0.1% BSA, pH 7.4, 2 mL). Radioligand binding began with the addition of CHO−K1 cell membranes (50 μg protein per sample). […] Liquid scintillation spectrometry was used to quantify radioactivity. For competition binding experiments, specific binding was equal to the difference in radioactivity with or without 1 μM […]

[7] = molecular target: T2, hCB1R (Homo sapiens, UniProt P21554); test: [3H]CP55,940 radioligand displacement assay, hCB1R; format: binding; settings: CHO hCB1R membranes, 1 nM [3H]CP55,940, 0.10 nM-10 μM compound, 2 h
T2 construct: expressed in transfected cells; host or cells: CHO-K1 cell membranes
T2 sequence (P21554 whole entry): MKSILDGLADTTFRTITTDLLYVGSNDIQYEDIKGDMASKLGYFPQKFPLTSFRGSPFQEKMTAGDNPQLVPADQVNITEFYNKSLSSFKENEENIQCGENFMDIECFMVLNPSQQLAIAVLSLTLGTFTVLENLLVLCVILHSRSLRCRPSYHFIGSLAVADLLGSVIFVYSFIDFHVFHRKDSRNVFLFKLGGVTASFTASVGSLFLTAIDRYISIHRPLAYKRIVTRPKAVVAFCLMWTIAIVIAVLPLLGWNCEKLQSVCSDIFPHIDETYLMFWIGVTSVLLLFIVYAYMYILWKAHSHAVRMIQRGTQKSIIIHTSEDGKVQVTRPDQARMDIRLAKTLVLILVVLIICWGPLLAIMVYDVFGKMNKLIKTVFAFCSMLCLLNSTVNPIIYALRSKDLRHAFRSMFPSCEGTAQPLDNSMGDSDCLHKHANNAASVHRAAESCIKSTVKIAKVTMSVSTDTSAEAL
Experimental: as §4, §5, §6, §7, §8, §9, §10

[8] = pEC50 ± SEM, compound alone, CHO hCB2R, 10 μM FSK, 90 min

Question: With `Cc1c(Br)cn(Cc2ccc(F)cc2)c(=O)c1NC(=O)C1CCCCCC1` [EC21a, reference compound] as the compound, how does the EC50 [1] read?
Answer: 30 nM

Question: What about the “Activity alone in cAMP inhibition” value ([1]; EC21a alone, Emax not different from 0) of the same compound?
Answer: inactive

Question: And the Emax [1]?
Answer: -14 ± 7%

Question: Which results are given for `Cc1c(Br)cn(CCCc2cn(CCCCC(=O)NC3CCC(NC(=O)c4cc5cccnc5n(Cc5ccc(F)cc5)c4=O)CC3)nn2)c(=O)c1NC(=O)C1CCCCCC1` (stereo not drawn) [JR14a]?
Answer: pEC50 ± SEM ([1]; compound alone, CHO hCB2R, 10 μM FSK, 90 min): 7.6 ± 0.9; EC50 ([1]; compound alone, CHO hCB2R, 10 μM FSK, 90 min, read-out: EC50 (in brackets after pEC50) (converted)): 24 nM; Emax [1]: 29 ± 5%

Question: What does the source list for `Cc1c(Br)cn(CCCc2cn(CCCCCn3c(=O)c(C(=O)NC4CCC(C)CC4)cc4cccnc43)nn2)c(=O)c1NC(=O)C1CCCCCC1` (stereo not drawn) [JR22a]?
Answer: EC50 ([1]; EC50 (in brackets after pEC50), compound alone, CHO hCB2R, 10 μM FSK, 90 min): 698 nM; EC50 [1, 8]: 794 nM; Emax [1]: 53 ± 6%; IL-6 levels in the cultured medium ([2]; 1 and 10 μM, 30 min pre-treatment, then LPS (10 μg/mL)/TNFα (50 ng/mL) 24 h): significant dose-dependent decrease; Effect of EC21a co-treatment on ability of JR22a to prevent IL-6 release ([2]; EC21a 10 μM, equimolar with JR22a, LPS/TNFα 24 h): did not interfere; Effect of SR144528 pre-administration on the JR22a effect on IL-6 release ([2]; SR144528 1 μM, 15 min before JR22a, LPS/TNFα 24 h): almost completely abolished; Cell viability (MTT) ([3]; 25 μM): significant inhibition of cell viability; Cytotoxic effect (cell viability, MTT) ([3]; 1 and 10 μM): no cytotoxic effect; Plasma stability [4]: stable; Plasma stability [5]: stable; IC50 [6]: 95 nM; Ki [6]: 95 nM; Displacement of [3H]CP55,940 [7]: not able to displace

Question: With `Cc1c(Br)cn(CCCCCCCn2c(=O)c(C(=O)NC3CCC(C)CC3)cc3cccnc32)c(=O)c1NC(=O)C1CCCCCC1` (stereo not drawn) [JR64a] as the compound, how does the EC50 [1, 8] read?
Answer: 2.51 nM

Question: What about the Emax [1] of the same compound?
Answer: 19 ± 6%
